Results: US9238131B2, “Ocular iontophoresis device” (priority 2005, dated 2016)

Conditions: rabbit, 40 mg/ml in water with no buffer, 2 mA-4 min
Description: The assignee made some comparative tests on rabbits done with a first iontophoresis device having cylindrical outer and inner walls (as known in the prior art) and a second iontophoresis device as shown in FIG. 7 (i.e. the inner wall 26 and outer wall 24 being tapered with the same inclination angle).
The two devices were designed for having the same: • application surface 2; • distance between the active electrode 10 and the application surface 2.
The area of the active electrode 30 of the second device was about three times more important than those of the first device.
For each comparative test, iontophoresis conditions were the same (2 mA-4 min).
After iontophoresis, rabbit ocular tissues were sampled. Tissues sampled included choroids and retina.
Concentrations of active substances 30 in these ocular tissues were then measured.

Structure (SMILES): C[C@@H]1C[C@H]2[C@@H]3CCC4=CC(=O)C=C[C@]4(C)[C@@]3(F)[C@@H](O)C[C@]2(C)[C@@]1(O)C(=O)COP(=O)([O-])[O-].[Na+].[Na+] [Dexamethasone Disodium Phosphate]
- Increase of tissue concentration, second device versus first device, choroids: 3.7
- Times more active substance in the tissues with second (tapered) device than with first (cylindrical) device (choroids and retina): At least three
